Results reported in US11013780B2, “Methods of treating female infertility” (Myovant Sciences GmbH, priority 2016, dated 2021).
Read-outs that look alike come from different tables or passages of the source. Where a SMILES comes first, the peptide text is derived from it. [ ]: non-standard residue; d: D form. Arg(Me) = CNC(=N)NCCC[C@H](N)C(=O)O; Hyp = O=C(O)[C@@H]1C[C@@H](O)CN1; azaGly = NNC(=O)O

Test: Single dose PK, phase 1, healthy Japanese men
Assay type: in vivo, human
Conditions: for Tmax / AUC(0-inf) / CL/F / Cmax / half-life / dose excreted: male, human; for Tmax / AUC(0-inf) / CL/F / Cmax / half-life: plasma; for dose excreted: urine
Description: Thirty-seven healthy Japanese male subjects aged 50 to 74 years were enrolled into nine cohorts. Subjects enrolled in the first […] cohorts received 0.001, 0.004, 0.01, 0.04, 0.1, 0.25 or 0.5 mg of API-MA or placebo by single SC bolus. In the 0.001 mg cohort, 3 subjects received API-MA and two received placebo. In the remaining cohorts, 3 subjects received API-MA and one received placebo. Subjects enrolled in the eighth and ninth cohorts received 0.25 or 0.5 mg of API-MA or placebo by single 2-hour SC infusion. In both cohorts, 3 subjects received API-MA and one received placebo. The plasma PK analysis set consisted of 31 subjects (bolus cohorts: 25; infusion cohorts: 6), and the urine PK analysis set consisted of 35 subjects (bolus cohorts: 27; infusion cohorts: 8).
To measure urinary excretion of API-MA, urine specimens were collected at the following nominal times: predose, 0 to 4, 4 to 8, 8 to 12, 12 to 24, 24 to 36, 36 to 48 and 48 to 72 hours postdose.

[1] = sc, 0.01 mg, single SC bolus 0.01 mg, mean
[2] = sc, 0.04 mg, single SC bolus 0.04 mg, mean
[3] = sc, 0.1 mg, single SC bolus 0.1 mg, mean
[4] = sc, 0.25 mg, single 2-hour SC INF 0.25 mg (plasma N = 1)
[5] = sc, 0.25 mg, single SC bolus 0.25 mg, mean
[6] = sc, 0.5 mg, single 2-hour SC INF 0.5 mg, mean
[7] = sc, 0.5 mg, single SC bolus 0.5 mg, mean

CC(=O)O.CNC(=N)NCCC[C@H](NC(=O)[C@H](CC(C)C)NC(=O)NNC(=O)[C@H](Cc1ccccc1)NC(=O)[C@@H](NC(=O)[C@H](CC(N)=O)NC(=O)[C@@H]1C[C@@H](O)CN1C(=O)[C@@H](Cc1ccc(O)cc1)NC(C)=O)[C@@H](C)O)C(=O)N[C@@H](Cc1c[nH]c2ccccc12)C(N)=O [API-MA, 2-(N-Acetyl-D-tyrosyl-trans-4-hydroxy-L-prolyl-Lasparaginyl-L-threonyl-L-phenylalanyl)-hydrazinocarbonyl-L-leucyl-Nω-methyl-L-arginyl-L-tryptophanamide monoacetate] (Ac-[dY][Hyp]NTF[azaGly]L[Arg(Me)]W-NH2)
Tmax (sc, 0.004 mg, single SC bolus 0.004 mg, read-out: Tmax, median (range)): 0.5 h | AUC(0-inf) [1]: 0.671 ng·h/mL | CL/F [1]: 250 mL/min | Cmax [1]: 0.221 ng/mL | half-life (sc, 0.01 mg, single SC bolus 0.01 mg, mean, read-out: T½ (converted)): 1.82 h | Tmax (sc, 0.01 mg, single SC bolus 0.01 mg, read-out: Tmax, median (range)): 0.5 h | AUC(0-inf) [2]: 2.61 ng·h/mL | CL/F [2]: 278 mL/min | Cmax [2]: 0.966 ng/mL | half-life (sc, 0.04 mg, single SC bolus 0.04 mg, mean, read-out: T½ (converted)): 3.35 h | Tmax (sc, 0.04 mg, single SC bolus 0.04 mg, read-out: Tmax, median (range)): 0.5 h | AUC(0-inf) [3]: 5.79 ng·h/mL | CL/F [3]: 298 mL/min | Cmax [3]: 2.42 ng/mL | half-life (sc, 0.1 mg, single SC bolus 0.1 mg, mean, read-out: T½ (converted)): 3.58 h | Tmax (sc, 0.1 mg, single SC bolus 0.1 mg, read-out: Tmax, median (range)): 0.375 h | AUC(0-inf) [4]: 13.3 ng·h/mL | CL/F [4]: 313 mL/min | Cmax [4]: 4.02 ng/mL | Tmax (sc, 0.25 mg, single 2-hour SC INF 0.25 mg (plasma N = 1), read-out: Tmax, median (range)): 2.25 h | half-life (sc, 0.25 mg, single 2-hour SC INF 0.25 mg (plasma N = 1), read-out: T½ (converted)): 3.77 h | AUC(0-inf) [5]: 18.3 ng·h/mL | CL/F [5]: 228 mL/min | Cmax [5]: 5.9 ng/mL | half-life (sc, 0.25 mg, single SC bolus 0.25 mg, mean, read-out: T½ (converted)): 4.09 h | Tmax (sc, 0.25 mg, single SC bolus 0.25 mg, read-out: Tmax, median (range)): 0.75 h | AUC(0-inf) [6]: 34.6 ng·h/mL | CL/F [6]: 243 mL/min | Cmax [6]: 8.23 ng/mL | half-life (sc, 0.5 mg, single 2-hour SC INF 0.5 mg, mean, read-out: T½ (converted)): 4.02 h | Tmax (sc, 0.5 mg, single 2-hour SC INF 0.5 mg, read-out: Tmax, median (range)): 2.5 h | AUC(0-inf) [7]: 30 ng·h/mL | CL/F [7]: 282 mL/min | Cmax [7]: 9.05 ng/mL | half-life (sc, 0.5 mg, single SC bolus 0.5 mg, mean, read-out: T½ (converted)): 4.27 h | Tmax (sc, 0.5 mg, single SC bolus 0.5 mg, read-out: Tmax, median (range)): 0.5 h | Tmax (sc, SC bolus, read-out: Median Tmax, range over cohorts): 0.375 to 0.75 h | half-life (subcutaneous, 0.5 mg, 0.25 and 0.5 mg, read-out: Mean T1/2 at the highest doses): 3.77 to 4.27 h | dose excreted (sc, 0.001 mg, single SC bolus 0.001 mg, mean, read-out: Fe (urine)): 0% | dose excreted (sc, 0.004 mg, single SC bolus 0.004 mg, mean, read-out: Fe (urine)): 6.16% | dose excreted (sc, 0.01 mg, single SC bolus 0.01 mg, mean, read-out: Fe (urine)): 5.4% | dose excreted (sc, 0.04 mg, single SC bolus 0.04 mg, mean, read-out: Fe (urine)): 4.24% | dose excreted (sc, 0.1 mg, single SC bolus 0.1 mg, mean, read-out: Fe (urine)): 5.2% | dose excreted (sc, 0.25 mg, single 2-hour SC INF 0.25 mg, mean, read-out: Fe (urine)): 6.21% | dose excreted (sc, 0.25 mg, single SC bolus 0.25 mg, mean, read-out: Fe (urine)): 7.1% | dose excreted (sc, 0.5 mg, single 2-hour SC INF 0.5 mg, mean, read-out: Fe (urine)): 5.22% | dose excreted (sc, 0.5 mg, single SC bolus 0.5 mg, mean, read-out: Fe (urine)): 6.33% | dose excreted (sc, 0.004 to 0.5 mg, bolus and infusion, read-out: Mean Fe, range over cohorts): 4.24 to 7.1% | API-MA in urine (single SC bolus 0.001 mg): No API-MA was detected
